Results as given in patent publication US10870925B2, “Arrays” (SENGENICS CORPORATION PTE LTD, priority 2001, dated 2020).

What was measured:
[1] = tested on: GADD45 promoter element DNA; experiment: Quantitative DNA binding on the p53 protein microarray (33P-labelled duplex DNA); conditions: 33P GADD45 duplex DNA; for DNA binding Bmax (% wild-type) / Kd: room temperature 30 min, confidence limits in parentheses; for GADD45 DNA binding, in words: p53 microarray
[2] = target: T1, cytochrome P450 3A4 (Homo sapiens, UniProt P08684); experiment: BzRes oxidation and ketoconazole inhibition, cytochrome P450 3A4 microsomes in solution and encapsulated in agarose; type: biochemical; conditions: standard error in parentheses
T1 construct: host or cells: microsomes

[3] = target: T2, 3A4*WT (Homo sapiens, UniProt P08684); experiment: BzRes turnover and ketoconazole inhibition, cumene hydrogen peroxide activated purified P450 3A4 isoform; type: biochemical; conditions: standard error in parentheses
T2 construct: His-tag (concluded from Ni-NTA / Talon purification); biotinylated tag (BCCP; concluded from streptavidin detection); made in house; host or cells: E. coli XL-10 gold

[4] = target: T3, 3A4*2 (Homo sapiens, UniProt P08684, S222P); experiment: as above; type: biochemical; conditions: standard error in parentheses
T3 construct: His-tag (concluded from Ni-NTA / Talon purification); biotinylated tag (BCCP; concluded from streptavidin detection); made in house; host or cells: E. coli XL-10 gold

[5] = target: T4, 3A4*3 (Homo sapiens, UniProt P08684, M445T); experiment: as above; type: biochemical; conditions: standard error in parentheses
T4 construct: His-tag (concluded from Ni-NTA / Talon purification); biotinylated tag (BCCP; concluded from streptavidin detection); made in house; host or cells: E. coli XL-10 gold

[6] = target: T5, 3A4*4 (Homo sapiens, UniProt P08684, I118V); experiment: as above; type: biochemical; conditions: standard error in parentheses
T5 construct: His-tag (concluded from Ni-NTA / Talon purification); biotinylated tag (BCCP; concluded from streptavidin detection); made in house; host or cells: E. coli XL-10 gold

[7] = target: T6, 3A4*5 (Homo sapiens, UniProt P08684, P218R); experiment: as above; type: biochemical; conditions: standard error in parentheses
T6 construct: His-tag (concluded from Ni-NTA / Talon purification); biotinylated tag (BCCP; concluded from streptavidin detection); made in house; host or cells: E. coli XL-10 gold

[8] = target: 3A4*15 (Homo sapiens, UniProt P08684, R162Q); experiment: as above
[9] = Gel encapsulated (agarose) microsomes
[10] = 200 μM cumene hydrogen peroxide
[11] = normalised for P450 concentration and scaled to wild-type

T1 sequence (P08684 whole entry): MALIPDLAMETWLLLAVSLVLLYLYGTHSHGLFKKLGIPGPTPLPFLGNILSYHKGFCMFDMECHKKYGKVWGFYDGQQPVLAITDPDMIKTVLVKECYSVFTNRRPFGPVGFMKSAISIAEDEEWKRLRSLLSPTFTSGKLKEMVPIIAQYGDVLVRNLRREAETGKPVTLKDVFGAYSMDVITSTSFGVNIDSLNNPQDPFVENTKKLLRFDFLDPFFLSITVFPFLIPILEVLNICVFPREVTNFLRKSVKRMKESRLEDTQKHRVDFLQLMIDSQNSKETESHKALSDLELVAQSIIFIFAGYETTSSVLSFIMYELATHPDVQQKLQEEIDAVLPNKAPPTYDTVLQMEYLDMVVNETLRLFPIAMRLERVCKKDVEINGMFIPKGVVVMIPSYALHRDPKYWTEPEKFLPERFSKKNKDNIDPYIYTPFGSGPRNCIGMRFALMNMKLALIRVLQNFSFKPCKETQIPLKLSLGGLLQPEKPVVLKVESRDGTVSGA
T5 sequence (P08684 whole entry I118V): as the sequence (P08684 whole entry) above, with I118V counted along it
T3 sequence (P08684 whole entry S222P): as the sequence (P08684 whole entry) above, with S222P counted along it
T2 sequence (P08684 whole entry, canonical isoform): as the sequence (P08684 whole entry) above
T4 sequence (P08684 whole entry M445T): as the sequence (P08684 whole entry) above, with M445T counted along it
T6 sequence (P08684 whole entry P218R): as the sequence (P08684 whole entry) above, with P218R counted along it
Chain of 3A4*15 (P08684 whole entry R162Q): as the sequence (P08684 whole entry) above, with R162Q counted along it

“R181H: p53 mutant protein, His- and biotin-tagged, E. coli expressed [Mutation R181H]” was tested, and the “DNA binding Bmax (% wild-type)” value [1] was 48 (40-57) % wild-type, the Kd [1] was 11 nM and the “GADD45 DNA binding, in words” value [1] was “wild-type binding”.
“R181C: p53 mutant protein, His- and biotin-tagged, E. coli expressed [Mutation R181C]” was tested, and the “DNA binding Bmax (% wild-type)” value [1] was 88 (81-95) % wild-type, the Kd [1] was 11 nM and the “GADD45 DNA binding, in words” value [1] was “wild-type binding”.
“S392A: p53 mutant protein, His- and biotin-tagged, E. coli expressed [Mutation S392A]” was tested, and the “DNA binding Bmax (% wild-type)” value [1] was 121 (107-136) % wild-type and the Kd [1] was 10 nM.
With “G325V: p53 mutant protein, His- and biotin-tagged, E. coli expressed [Mutation G325V]” the “DNA binding Bmax (% wild-type)” value [1] was 73 (67-79) % wild-type, the Kd [1] was 7 nM and the “GADD45 DNA binding, in words” value [1] was “near wild-type affinity”.
In the case of `O=c1ccc2nc3ccc(OCc4ccccc4)cc3oc-2c1` [BzRes, resorufin benzyl ether], the “BzRes Oxidation Vmax (% of soluble)” value [2, 9] is reported as 50 (6) % of soluble, the Km [2, 9] is reported as 49 µM and the “BzRes Oxidation Vmax (% of soluble)” value ([2]; Soluble microsomes) is reported as 100 (6) % of soluble. The Km ([2]; Soluble microsomes) was 20 µM, the Km [3, 10] was 104 µM and the “Vmax BzRes” value [3, 11] was 100 (34). The Km [4, 10] was 62 µM, the “Vmax BzRes” value [4, 11] was 65 (9) and the Km [5, 10] was 54 µM. The “Vmax BzRes” value [5, 11] was 93 (24), the Km [6, 10] was 111 µM and the “Vmax BzRes” value [6, 11] was 69 (22). The Km [7, 10] was 101 µM, the “Vmax BzRes” value [7, 11] was 59 (16) and the “Vmax BzRes” value ([8]; normalised for P450 concentration and scaled to wild-type, standard error in parentheses) was 111 (23). For the same molecule, the Km ([8]; read-out: KM BzRes, 200 μM cumene hydrogen peroxide, standard error in parentheses) was 89 µM.
“R280K: p53 mutant protein, His- and biotin-tagged, E. coli expressed [Mutation R280K]” was tested, and the “DNA binding Bmax (% wild-type)” value [1] was 54 (40-70) % wild-type and the Kd [1] was 21 nM.
